Source: patent publication US20090087845A1, “Genetic Markers Of True Low Birth Weight” (priority 2005, published 2009)
Values joined by “and” are separate entries in the source; they are usually repeats but may differ in a detail not shown here. Equal entries are not always repeated.

System: placental gene expression
Test: Placental gene expression (Affymetrix Rat Genome Chip 230.2) after SSRI (fluoxetine) exposure throughout gestation
Format: in vivo
Conditions: placenta, SSRI-exposed samples
Experimental: Gene expression data from pregnant rats under different forms of dietary restriction was gathered. […] (N=8) • Group 2 (CR50): Rats Given 50% of their Normal Daily Intake of Food. (N=5) • Group 3 (CR70): Rats Given 70% of their Normal Daily Intake of Food. […] (N=6) Placentas from the rats of each Group were harvested on Day 21 of gestation. RNA was extracted and gene expression was measured based on hybridization of RNA to Affymetrix Rat Genome Chips™ (230.2) (Affymetrix, Santa Clara, Calif.).
In order to determine whether placental gene expression profiling can be used to identify other prenatal exposures such as toxicants and drugs, a group of rats with drug exposure was monitored as described above. […] As with control, CR50, CR70, and HF groups, placentas from the mothers were sampled after 21 days of gestation and gene expression monitored utilizing an Affymetrix Rat Genome Chip.

## CNCCC(Oc1ccc(C(F)(F)F)cc1)c1ccccc1 (stereo not shown) [fluoxetine, Fluoxetine]
  expression, probeset 1384527_at: 5 and 5.16 and 4.806 and 4.891 and 4.944 and 4.995
  expression, probeset 1384528_at: 7.1 and 7.424 and 7.73 and 8.04 and 7.505 and 7.682
  expression, probeset 1384641_at: 5.867 and 5.877 and 5.784 and 5.513 and 5.517 and 5.626
  expression, probeset 1384849_at: 4.659 and 4.629 and 5.174 and 5.223 and 4.879 and 4.92
  expression, probeset 1384923_at: 6.977 and 7.2 and 6.818 and 6.939 and 6.837 and 6.982
  expression, probeset 1385137_at: 6.326 and 6.421 and 6.154 and 5.912 and 6.02 and 6.248
  expression, probeset 1385163_at: 6.063 and 5.993 and 6.045 and 5.955 and 5.885 and 6.124
  expression, probeset 1385336_at: 4.379 and 4.499 and 4.426 and 4.399 and 4.645 and 4.457
  expression, probeset 1385442_at: 7.16 and 7.404 and 6.997 and 6.879 and 6.92 and 6.943
  expression, probeset 1385518_at: 6.937 and 6.773 and 6.99 and 6.986 and 7.076 and 6.76
  expression, probeset 1385535_at: 4.02 and 3.842 and 4.063 and 4.09 and 4.042 and 4.166
  expression, probeset 1385652_at: 7.797 and 7.898 and 7.543 and 7.484 and 7.575 and 7.378
  expression, probeset 1385676_at: 8.114 and 8.061 and 8.462 and 8.533 and 8.039 and 8.344
  expression, probeset 1385698_at: 3.878 and 3.859 and 3.777 and 3.605 and 3.7424 and 3.746
  expression, probeset 1385760_at: 7.137 and 7.354 and 6.648 and 7.09 and 7.316 and 7.321
  expression, probeset 1385775_at: 4.145 and 4.375 and 3.896 and 3.993 and 4.079 and 4.161
  expression, probeset 1386125_at: 6.311 and 6.381 and 6.134 and 6.261 and 6.055 and 6.325
  expression, probeset 1386158_at: 4.004 and 4.128 and 4.063 and 4.152 and 3.988 and 3.931
  expression, probeset 1386414_at: 6.861 and 7.196 and 6.932 and 7.199 and 7.249 and 7.033
  expression, probeset 1386519_x_at: 7.188 and 7.295 and 7.082 and 7.038 and 7.203 and 7.126
  expression, probeset 1387083_at: 5.565 and 6.278 and 5.686 and 5.781 and 5.789 and 5.938
  expression, probeset 1387136_at: 6.691 and 6.697 and 6.593 and 6.718 and 6.67 and 6.537
  expression, probeset 1387406_at: 6.01 and 6.243 and 5.981 (2×) and 5.916 and 6.087
  expression, probeset 1387459_at: 3.484 and 3.639 and 3.932 and 3.86 and 3.992 and 3.799
  expression, probeset 1387764_at: 5.733 and 5.268 and 5.537 and 5.549 and 5.494 and 5.603
  expression, probeset 1387899_at: 5.335 and 5.408 and 5.339 and 5.026 and 4.958 and 5.215
  expression, probeset 1387912_at: 8.618 and 8.518 and 8.718 and 9.05 and 9.01 and 8.757
  expression, probeset 1388037_at: 4.856 and 4.68 and 4.647 and 4.894 and 4.953 and 4.682
  expression, probeset 1388091_at: 4.362 and 4.794 and 4.302 and 4.133 and 4.449 and 4.329
  expression, probeset 1388390_at: 10.86 and 10.87 and 11.34 and 11.8393 and 11.4165 and 11.4451
  expression, probeset 1388396_at: 8.176 and 7.836 and 8.032 and 8.018 and 7.774 and 8.067
  expression, probeset 1388447_at: 7.564 and 7.841 and 7.682 and 7.537 and 7.38 and 7.532
  expression, probeset 1388486_at: 7.701 and 7.565 and 7.723 and 7.751 and 7.921 and 7.749
  expression, probeset 1388781_at: 5.825 and 6.004 and 5.674 and 5.735 and 5.979 and 5.673
  expression, probeset 1388938_at: 9.061 and 9.268 and 8.805 and 8.994 and 8.728 and 9.107
  expression, probeset 1389095_at: 5.489 and 5.217 and 5.112 and 5.397 and 5.478 and 5.073
  expression, probeset 1389431_at: 6.558 and 6.3 and 6.381 and 6.49 and 6.951 and 6.471
  expression, probeset 1389551_at: 8.862 and 8.606 and 8.909 and 8.801 and 8.621 and 8.842
  expression, probeset 1389664_at: 7.741 and 8.146 and 7.529 and 7.949 and 7.982 and 7.952
  expression, probeset 1389835_at: 4.064 and 3.784 and 4.093 and 4.045 (2×) and 4.18
  expression, probeset 1389917_at: 5.998 and 5.507 and 6.012 and 5.987 and 5.908 and 5.888
  expression, probeset 1389938_at: 3.638 and 3.579 and 3.678 and 3.837 and 3.753 and 3.593
  expression, probeset 1390090_at: 7.476 and 7.464 and 7.498 and 7.393 and 7.3 and 7.578
  expression, probeset 1390259_at: 4.304 and 4.546 and 4.677 and 4.255 and 4.358 and 4.411
  expression, probeset 1390464_at: 5.625 and 5.847 and 5.541 and 5.807 and 5.983 and 5.83
  expression, probeset 1390534_at: 6.478
  expression, probeset 1390603_at: 6.467 and 6.868 and 6.527 and 6.621 and 6.242 and 6.674
  expression, probeset 1390649_at: 7.28 and 7.575 and 6.821 and 7.034 and 7.132 and 6.938
  expression, probeset 1390892_at: 5.112 and 5.3382 and 4.891 and 5.21 and 4.944 and 5.358
